Each compound was assayed against N6-adenosine-methyltransferase catalytic/non-catalytic subunit (Homo sapiens, UniProt Q9HCE5+Q86U44) (assay: Inhibition of full-length His-tagged METTL3/full length FLAG-tagged METTL14 (unknown origin) expressed in baculovirus expression system using synthetic RNA 5'P-uacacucgaucuggacuaaagcugcuc-3' and SAM as substrate preincubated for 10 mins followed by substrate addition and measured after 60 mins by RF/MS analysis).
N6-adenosine-methyltransferase catalytic/non-catalytic subunit, sequence (Q9HCE5 whole entry): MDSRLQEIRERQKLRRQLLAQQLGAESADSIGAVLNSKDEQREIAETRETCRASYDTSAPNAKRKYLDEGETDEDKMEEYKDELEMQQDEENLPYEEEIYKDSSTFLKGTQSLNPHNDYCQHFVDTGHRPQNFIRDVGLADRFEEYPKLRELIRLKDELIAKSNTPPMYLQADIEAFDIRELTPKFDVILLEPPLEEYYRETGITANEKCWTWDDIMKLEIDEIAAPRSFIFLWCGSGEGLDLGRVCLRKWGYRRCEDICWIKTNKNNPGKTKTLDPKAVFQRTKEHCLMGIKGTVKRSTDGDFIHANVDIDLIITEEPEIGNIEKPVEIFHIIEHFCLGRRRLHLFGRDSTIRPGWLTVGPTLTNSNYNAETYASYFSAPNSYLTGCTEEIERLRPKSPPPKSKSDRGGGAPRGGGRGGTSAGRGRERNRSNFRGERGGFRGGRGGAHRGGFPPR
N6-adenosine-methyltransferase catalytic/non-catalytic subunit, sequence (Q86U44 whole entry): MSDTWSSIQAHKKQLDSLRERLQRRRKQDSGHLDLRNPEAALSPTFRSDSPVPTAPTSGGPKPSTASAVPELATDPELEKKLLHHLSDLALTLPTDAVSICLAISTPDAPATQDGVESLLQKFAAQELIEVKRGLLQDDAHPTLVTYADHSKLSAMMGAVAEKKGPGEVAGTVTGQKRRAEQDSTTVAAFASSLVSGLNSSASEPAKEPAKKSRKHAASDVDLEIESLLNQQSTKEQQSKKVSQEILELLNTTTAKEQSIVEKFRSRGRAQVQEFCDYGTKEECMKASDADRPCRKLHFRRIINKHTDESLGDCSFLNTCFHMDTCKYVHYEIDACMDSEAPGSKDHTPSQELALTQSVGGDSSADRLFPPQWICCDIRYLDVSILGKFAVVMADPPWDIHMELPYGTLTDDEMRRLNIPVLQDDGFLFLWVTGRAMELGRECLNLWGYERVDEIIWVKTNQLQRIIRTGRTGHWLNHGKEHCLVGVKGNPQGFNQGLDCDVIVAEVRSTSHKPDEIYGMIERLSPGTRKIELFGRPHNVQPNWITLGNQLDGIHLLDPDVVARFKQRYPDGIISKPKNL

Row | IC50 [nM] | Compound
1 | 6.2 | Nc1ncnc2c1ccn2[C@@H]1C[C@H](c2ccc3cc(CN4CCC5(CCC5)C4)[nH]c3c2)[C@@H](O)[C@H]1O [(1R,2S,3R,5R)-3-{4-amino-7H-pyrrolo[2,3-d]pyrimidin-7-yl}-5-[2-({6-azaspiro[3.4]octan-]
2 | 6.1 | COc1ccc2[nH]ncc2c1-c1cn(Cc2cn3cc(CNCC4CCC4)ccc3n2)nn1
3 | 6.1 | COc1cc(-c2cn(Cc3cn4cc(CNCC5(OC)CCC5)ccc4n3)nn2)c2cn[nH]c2c1
4 | 6.1 | Nc1ncnc2c1c(Br)cn2[C@@H]1C[C@H](c2ccc3cc(CN4CCC5(CCC5)C4)[nH]c3c2)[C@@H](O)[C@H]1O [(1R,2S,3R,5R)-3-{4-amino-5-bromo-7H-pyrrolo[2,3-d]pyrimidin-7-yl}-5-[2-({6-azaspiro[3.4]octan-]
5 | 6.1 | Nc1ncnc2c1c(Cl)cn2[C@@H]1C[C@H](c2ccc3cc(CNCC45CC(F)(C4)C5)[nH]c3c2)[C@@H](O)[C@H]1O [(1R,2S,3R,5R)-3-{4-amino-5-chloro-7H-pyrrolo[2,3-d]pyrimidin-7-yl}-5-(2-{[({3-fluorobicyclo[1.1.1]pentan-1-]
6 | 7.9 | CC1(C)CCN(Cc2ccc3nc(Cn4cc(-c5cc(Br)cc6[nH]ncc56)nn4)cn3c2)CC1

These compounds were tested against METTL3/METTL14 complex (assay: Inhibition of METTL3/METTL14 (unknown origin)).

Row | IC50 [nM] | Compound
7 | 15300 | CC1=NN(c2ccc(C)c(C)c2)C(=O)/C1=N\Nc1cccc(-c2cccc(C(=O)O)c2)c1

The compounds below were run against METTL3/METTL14 complex (Homo sapiens) (assay: Competive inhibition of full length human METTL3/METTL14 expressed in Sf9 cells using single strand RNA 5'-AAGAACCGGACUAAGCU-3' and SAM as substrate incubated for 40 mins by HTRF assay).

Row | IC50 [nM] | Compound
8 | 98000 | CNC1CCC(O)(Cn2cnc3c(N)ncnc32)C(O)C1 (stereo not drawn)
9 | 65000 | CN1CCC(NC(=O)[C@H]2O[C@@H](n3cnc4c(N)ncnc43)[C@H](O)[C@@H]2O)CC1

Each compound was assayed against METTL3/METTL14 (Homo sapiens) (assay: Inhibition of full-length His-tagged METTL3/full length FLAG-tagged METTL14 (unknown origin) expressed in baculovirus expression system using synthetic RNA 5'P-uacacucgaucuggacuaaagcugcuc-3' and SAM as substrate preincubated for 10 mins followed by substrate addition and measured after 60 mins by RF/MS analysis).

Row | Compound | IC50 [nM]
10 | O=C(NCc1cn2cc(CNCC34CC(F)(C3)C4)ccc2n1)c1cc(=O)n2ccccc2n1 | 6.1
11 | COc1cc(-c2cn(Cc3cn4cc(CNCC56CC(C5)C6)ccc4n3)nn2)c2cncn2c1 [({bicyclo[1.1.1]pentan-1-yl}methyl)({2-[(4-{6-methoxyimidazo[1,5-a]pyridin-8-yl}-1H-1,2,3-triazol-1-yl)methyl]imidazo [1,2-a]pyridin-6-yl}methyl)amine] | 6.1

Further lines, results first:

Row | IC50 [nM] | Compound
12 | 6.1 | COc1cc(-c2cn(Cc3cn4cc(CNCC56CC(F)(C5)C6)ccc4n3)nn2)c2cncn2c1 [({3-fluorobicyclo[1.1.1]pentan-1-yl}methyl)({2-[(4-{6-methoxyimidazo[1,5-a]pyridin-8-yl}-1H-1,2,3-triazol-1-yl)methyl]imidazo [1,2-a]pyridin-6-yl}methyl)amine]
13 | 6.1 | COc1cc(-c2cn(Cc3cn4cc(CNCC5CCC5)ccc4n3)nn2)c2cncn2c1 [US20230391770, Example 22]

From BindingDB's records for doi:10.1021/acs.jmedchem.2c01601 (Sapienza University of Rome, 2023)
